Several values for one entry are separate records, joined by “and”; a condition that tells them apart may be missing. Equal entries are not always repeated. Where two headings read alike, the source gives them in different places.
Key:
[1] = biological target: T1, SARS-CoV-2 NSP3 macrodomain (Mac1) (Severe acute respiratory syndrome coronavirus 2, UniProt P0DTD1); test: biochemical; assay type: binding; conditions: for Average % competition: Single dose, concentration 200 μM
[2] = biological target: T1, SARS-CoV-2 NSP3 macrodomain (Mac1); assay type: binding; conditions: for 2*(1-BDC) (%): occupancy estimate from PanDDA; for Number of isomers bound: ligand modeling, Mac1 crystal soak; for Total number of conformations: ligand conformations modeled in the crystal structure
[3] = HTRF binding curve, SARS-CoV-2 Mac1
[4] = SARS CoV-2 macrodomain HTRF assay
[5] = SARS CoV-2 macrodomain HTRF assay, dose-response
[6] = read-out: IC50 (confirmatory HTRF dose-response screen)
[7] = TRUE = crystal structure with ligand obtained
[8] = crystal soak 10 mM, DMSO background map
[9] = site of ligand in X-ray crystal structure
[10] = SARS CoV-2 macrodomain HTRF assay, single dose concentration 200 μM, read-out: Average % competition
[11] = compound at 200 μM, mean of three to four technical replicates, read-out: % competition at 200 μM (preliminary HTRF screen)
[12] = SARS CoV-2 macrodomain HTRF assay, dose-response, read-out: IC50
[13] = stereoisomer(s) modeled as bound, residues 201/202/203
[14] = PanDDA background density correction factor
[15] = crystal soak 10 mM, P43 crystal form
[16] = refined crystallographic occupancy

Compound	Ki [1, 4]	Ligand efficiency (binding enery per heavy atom) [1, 4]	inhibition at 200 µM [1, 11]	PanDDA run, TFA/DMSO background map: 1-BDC ([2]; crystal soak 10 mM)	PanDDA run, TFA/DMSO background map: Hit ([2]; crystal soak 10 mM)	Number of isomers bound [2]	Average % competition [1]	further results
Cc1c[nH]c2ncnc(NCC(C)(C)O)c12 [AVI-3758, 2-methyl-1-((5-methyl-7H-pyrrolo[2,3-d]pyrimidin-4-yl)amino)propan-2-ol]	26 µM	0.40	–	–	–	–	–	Hill slope [1, 3]: 1.0; Hill slope [1, 5]: 1.0; IC50 [1, 6]: 28 µM; 1-BDC ([2]; PanDDA background density correction, 1-BDC): 0.14; X-ray crystal structure [2, 7]: TRUE; Hit (PanDDA run, DMSO background map) [2, 8]: TRUE; 1-BDC (PanDDA run, DMSO background map) ([2]; crystal soak 10 mM, DMSO background map, event 1): 0.19 and 0.14; Hit (PanDDA run, overall) ([2]; crystal soak, 10 mM soak concentration, P43 crystal form): TRUE; Refined ligand occupancy (%) ([2]; crystallographic refinement): 50%; 2*(1-BDC) (%) [2]: 28%; Binding site [2, 9]: Adenosine
OCC1CC2(CCOCC2)CN1c1ncnc2[nH]ccc12 (centres unmarked) [AVI-3707]	–	–	39%	0.15	TRUE	1	–	inhibition at 200 µM [1, 10]: 39%
O=C(O)C1CCCN1S(=O)(=O)c1cccc2nsnc12 (centres unmarked) [AVI-2]	–	–	23%	–	–	1	–	–
CC1CC(C(=O)O)CCN1C(=O)c1ccc2c(c1)OCC(=O)N2 (centres unmarked) [AVI-303]	–	–	< 10%	–	–	1	–	inhibition at 200 µM ([1]; single dose concentration 200 μM (TS-FrankenROCS series), read-out: Average % competition): < 10%
CC(c1ccccc1)C(CO)Nc1ncnc2[nH]ccc12 (centres unmarked) [AVI-3669]	8.1 µM	0.33	–	0.09	TRUE	1	–	Ligand efficiency ([1]; Binding energy per heavy atom): 0.33; fold more potent / increased binding affinity than AVI-313 parent ([1]; HTRF IC50 compared with AVI-313): > 10 fold; IC50 [1, 6]: 8.7 µM
C[C@@H](O)[C@H](CO)Nc1ncnc2[nH]ccc12.O=C(O)C(F)(F)F [AVI-3730]	–	–	63%	0.12	TRUE	1	63%	–
O=C(O)C(F)(F)F.OCC1(Nc2ncnc3[nH]ccc23)CC1 [AVI-3688]	–	–	72%	0.17	TRUE	1	72%	–
CC(O)C(C)Nc1ncnc2[nH]ccc12 (centres unmarked) [AVI-5158]	–	–	32%	–	–	–	32%	Isomers modeled ([2]; stereoisomer(s)/conformations of the soaked ligand modeled in the Mac1 crystal structure): RS,RR
OCC1CC2(CCCC2)CN1c1ncnc2[nH]ccc12 (centres unmarked) [AVI-3708]	25 µM	0.32	–	–	–	1	–	IC50 [1, 12]: 27 µM
OCC(Cc1ccoc1)Nc1ncnc2[nH]ccc12 (centres unmarked) [AVI-3705]	–	–	64%	0.14	TRUE	1	64%	–
CO[C@@H]1C[C@H](CO)N(c2ncnc3[nH]ccc23)C1 [AVI-3656]	–	–	41%	–	–	1	–	inhibition at 200 µM [1, 10]: 41%
Cc1ccc(CC(CO)Nc2ncnc3[nH]ccc23)cc1C (centres unmarked) [AVI-3684]	–	–	< 10%	–	–	2	<10%	Isomers modeled [2, 13]: R,S
OCC1C2CCC(C2)N1c1ncnc2[nH]ccc12 (centres unmarked) [AVI-3713]	25 µM	0.35	–	–	–	1	–	IC50 [1, 12]: 27 µM; Isomers modeled [2, 13]: SSR
OCC(CC1OCCO1)Nc1ncnc2[nH]ccc12 (centres unmarked) [AVI-3658]	–	–	11%	–	–	1	11%	–
OCC(CC1CCCO1)Nc1ncnc2[nH]ccc12 (centres unmarked) [AVI-3660]	–	–	18%	0.17	TRUE	1	18%	–
CC(C)(O)[C@@H]1CCCN1c1ncnc2[nH]ccc12 [AVI-1445, (S)-2-(1-(7H-pyrrolo[2,3-d]pyrimidin-4-yl)pyrrolidin-2-yl)propan-2-ol]	100 µM	0.31	75%	0.12	TRUE	1	–	Hill slope [1, 3]: 1.1; Hill slope [1, 5]: 1.6; inhibition at 200 µM [1, 10]: 75%; IC50 [1, 6]: 110 µM; Occupancy difference (refined_occupancy - 2*(1-BDC)) [2]: 0; 1-BDC [2, 14]: 0.12; PanDDA run, overall: Hit [2, 15]: TRUE; PanDDA run, DMSO background map: 1-BDC [2, 8]: 0.12; PanDDA run, DMSO background map: Hit [2, 8]: TRUE; Total number of conformations [2]: 1; X-ray crystal structure ([2]; ligand-bound crystal structure obtained (TRUE)): TRUE; 2*(1-BDC) (%) [2]: 24%; Refined ligand occupancy (%) [2, 16]: 24%; Binding site ([2]; site occupied in X-ray crystal structure): Adenosine
CC(C)(C)CC(CO)Nc1ncnc2[nH]ccc12 (centres unmarked) [AVI-3648]	–	–	27%	0.16	TRUE	1	27%	–
OCC(Nc1ncnc2[nH]ccc12)C1CCC1 (centres unmarked) [AVI-3638]	–	–	77%	0.1	TRUE	1	77%	–
Cc1c[nH]c2ncnc(NCC3(O)CCC3)c12 [AVI-3571, 1-(((5-methyl-7H-pyrrolo[2,3-d]pyrimidin-4-yl)amino)methyl)cyclobutan-1-ol]	14 µM	0.39	–	–	–	1	–	Hill slope [1, 3]: 1.0; Hill slope [1, 5]: 1.0; IC50 [1, 12]: 15 µM; Occupancy difference (refined_occupancy - 2*(1-BDC)) [2]: 0; 1-BDC [2, 14]: 0.15; X-ray crystal structure [2, 7]: TRUE; PanDDA run, overall: Hit [2, 15]: TRUE; PanDDA run, DMSO background map: 1-BDC [2, 8]: 0.15 and 0.2; PanDDA run, DMSO background map: Hit [2, 8]: TRUE; Total number of conformations [2]: 2; 2*(1-BDC) (%) [2]: 30%; Refined ligand occupancy (%) [2, 16]: 30%; Binding site [2, 9]: Adenosine

Reference: PMC12118597 (Science Advances, 2025)
